Laboratory results taken from PubChem BioAssay (NCI).
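1) Cells in 96-well plates. 2) Compound, 48 h, 5 concentrations. 3) Linear interpolation between surrounding doses. 4) Unreached endpoint = highest concentration. At the GI50, growth is halved. TGI: concentration producing complete growth inhibition.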

What was measured:
Assay in all cases: NCI tumour cell line growth inhibition, 48 h
786-0 renal = system: 786-0 renal
A498 renal = system: A498 renal
A549 NSCLC = system: A549 NSCLC
ACHN renal = system: ACHN renal
BT-549 breast = system: BT-549 breast
CAKI-1 renal = system: CAKI-1 renal
CCRF-CEM leukemia = system: CCRF-CEM leukemia
COLO 205 colon = system: COLO 205 colon
DU-145 prostate = system: DU-145 prostate
EKVX NSCLC = system: EKVX NSCLC
HCC-2998 colon = system: HCC-2998 colon
HCT-116 colon = system: HCT-116 colon
HCT-15 colon = system: HCT-15 colon
HL-60(TB) leukemia = system: HL-60(TB) leukemia
HOP-62 NSCLC = system: HOP-62 NSCLC
HS 578T breast = system: HS 578T breast
HT29 colon = system: HT29 colon
IGROV1 ovarian = system: IGROV1 ovarian
K-562 leukemia = system: K-562 leukemia
KM12 colon = system: KM12 colon
LOX IMVI melanoma = system: LOX IMVI melanoma
M14 melanoma = system: M14 melanoma
MALME-3M melanoma = system: MALME-3M melanoma
MCF7 breast = system: MCF7 breast
MDA-MB-231 breast = system: MDA-MB-231 breast
MOLT-4 leukemia = system: MOLT-4 leukemia
NCI-H226 lung = system: NCI-H226 lung
NCI-H23 lung = system: NCI-H23 lung
NCI-H460 lung = system: NCI-H460 lung
NCI-H522 lung = system: NCI-H522 lung
NCI/ADR-RES ovarian = system: NCI/ADR-RES ovarian
OVCAR-3 ovarian = system: OVCAR-3 ovarian
OVCAR-4 ovarian = system: OVCAR-4 ovarian
OVCAR-5 ovarian = system: OVCAR-5 ovarian
OVCAR-8 ovarian = system: OVCAR-8 ovarian
PC-3 prostate = system: PC-3 prostate
RPMI-8226 leukemia = system: RPMI-8226 leukemia
RXF 393 renal = system: RXF 393 renal
SF-268 CNS = system: SF-268 CNS
SF-295 CNS = system: SF-295 CNS
SF-539 CNS = system: SF-539 CNS
SK-MEL-2 melanoma = system: SK-MEL-2 melanoma
SK-MEL-28 melanoma = system: SK-MEL-28 melanoma
SK-MEL-5 melanoma = system: SK-MEL-5 melanoma
SK-OV-3 ovarian = system: SK-OV-3 ovarian
SN12C renal = system: SN12C renal
SNB-19 CNS = system: SNB-19 CNS
SW-620 colon = system: SW-620 colon
T-47D breast = system: T-47D breast
TK-10 renal = system: TK-10 renal
U251 CNS = system: U251 CNS
UACC-257 melanoma = system: UACC-257 melanoma
UACC-62 melanoma = system: UACC-62 melanoma
UO-31 renal = system: UO-31 renal
HOP-92 NSCLC = system: HOP-92 NSCLC
MDA-MB-435 = system: MDA-MB-435
SNB-75 CNS = system: SNB-75 CNS
SR leukemia = system: SR leukemia

With `COc1ccc(-c2cc(=O)c3c(C)ccnc3[nH]2)cc1` as the compound, how does the GI50 (786-0 renal) read?
Its GI50 is 25.3 µM.

And the TGI (786-0 renal)?
Its TGI is > 100 µM.

And the TGI (A498 renal)?
Its TGI is 41.4 µM.

What about the TGI (A549 NSCLC) of the same compound?
The TGI was > 100 µM.

What about the TGI (ACHN renal) of the same compound?
Its TGI is > 100 µM.

What about the TGI (BT-549 breast) of the same compound?
The TGI was 67.3 µM.

And the TGI (CAKI-1 renal)?
Its TGI is > 100 µM.

And the TGI (CCRF-CEM leukemia)?
Its TGI is 44.8 µM.

What about the TGI (COLO 205 colon) of the same compound?
The TGI was 16.4 µM.

And the TGI (DU-145 prostate)?
Its TGI is > 100 µM.

What about the TGI (EKVX NSCLC) of the same compound?
The TGI was > 100 µM.

And the TGI (HCC-2998 colon)?
The TGI was > 100 µM.

What about the GI50 (HCT-116 colon) of the same compound?
The GI50 was 6.43 µM.

And the TGI (HCT-116 colon)?
Its TGI is 39.4 µM.

And the TGI (HCT-15 colon)?
The TGI was > 100 µM.

What about the GI50 (HL-60(TB) leukemia) of the same compound?
Its GI50 is 4.37 µM.

And the TGI (HL-60(TB) leukemia)?
The TGI was 17.3 µM.

And the TGI (HOP-62 NSCLC)?
Its TGI is 92.4 µM.

What about the TGI (HS 578T breast) of the same compound?
The TGI was 77.1 µM.

And the TGI (HT29 colon)?
Its TGI is 40.5 µM.

What about the TGI (IGROV1 ovarian) of the same compound?
Its TGI is > 100 µM.

And the TGI (K-562 leukemia)?
Its TGI is > 100 µM.

What about the TGI (KM12 colon) of the same compound?
Its TGI is 23.2 µM.

What about the TGI (LOX IMVI melanoma) of the same compound?
The TGI was > 100 µM.

What about the TGI (M14 melanoma) of the same compound?
The TGI was > 100 µM.

And the TGI (MALME-3M melanoma)?
The TGI was 65.2 µM.

And the TGI (MCF7 breast)?
Its TGI is > 100 µM.

What about the TGI (MDA-MB-231 breast) of the same compound?
The TGI was > 100 µM.

What about the TGI (MOLT-4 leukemia) of the same compound?
Its TGI is 50 µM.

What about the TGI (NCI-H226 lung) of the same compound?
Its TGI is > 100 µM.

What about the TGI (NCI-H23 lung) of the same compound?
Its TGI is 65.2 µM.

What about the GI50 (NCI-H460 lung) of the same compound?
Its GI50 is 6.19 µM.

What about the TGI (NCI-H460 lung) of the same compound?
The TGI was > 100 µM.

What about the TGI (NCI-H522 lung) of the same compound?
The TGI was > 100 µM.

And the TGI (NCI/ADR-RES ovarian)?
Its TGI is > 100 µM.

What about the GI50 (OVCAR-3 ovarian) of the same compound?
Its GI50 is 13.9 µM.

What about the TGI (OVCAR-3 ovarian) of the same compound?
Its TGI is 92 µM.

And the TGI (OVCAR-4 ovarian)?
Its TGI is > 100 µM.

And the TGI (OVCAR-5 ovarian)?
Its TGI is 68.4 µM.

What about the TGI (OVCAR-8 ovarian) of the same compound?
The TGI was > 100 µM.

What about the GI50 (PC-3 prostate) of the same compound?
Its GI50 is 18.1 µM.

And the TGI (PC-3 prostate)?
The TGI was > 100 µM.

And the TGI (RPMI-8226 leukemia)?
Its TGI is 53 µM.

What about the TGI (RXF 393 renal) of the same compound?
The TGI was 41.6 µM.

And the TGI (SF-268 CNS)?
Its TGI is 44.3 µM.

And the GI50 (SF-295 CNS)?
Its GI50 is 19.5 µM.

What about the TGI (SF-295 CNS) of the same compound?
Its TGI is > 100 µM.

What about the TGI (SF-539 CNS) of the same compound?
The TGI was 72.2 µM.

And the TGI (SK-MEL-2 melanoma)?
Its TGI is 28.1 µM.

What about the TGI (SK-MEL-28 melanoma) of the same compound?
The TGI was > 100 µM.

What about the GI50 (SK-MEL-5 melanoma) of the same compound?
The GI50 was 3.87 µM.

What about the TGI (SK-MEL-5 melanoma) of the same compound?
The TGI was 14.7 µM.

And the TGI (SK-OV-3 ovarian)?
Its TGI is > 100 µM.

And the TGI (SN12C renal)?
Its TGI is > 100 µM.

What about the TGI (SNB-19 CNS) of the same compound?
The TGI was > 100 µM.

What about the TGI (SW-620 colon) of the same compound?
The TGI was > 100 µM.

And the TGI (T-47D breast)?
Its TGI is > 100 µM.

What about the TGI (TK-10 renal) of the same compound?
The TGI was > 100 µM.

And the GI50 (U251 CNS)?
The GI50 was 6.3 µM.

What about the TGI (U251 CNS) of the same compound?
Its TGI is > 100 µM.

What about the TGI (UACC-257 melanoma) of the same compound?
Its TGI is > 100 µM.

What about the TGI (UACC-62 melanoma) of the same compound?
Its TGI is 32.6 µM.

And the TGI (UO-31 renal)?
Its TGI is > 100 µM.

What does the source list for `COc1ccc(-c2nc(-c3nc4cc(Cl)c(Cl)cc4[nH]3)c3ccccn23)cc1`?
GI50 (A498 renal): 4.2 µM; TGI (A498 renal): > 100 µM; GI50 (BT-549 breast): 3.08 µM; TGI (BT-549 breast): 9.48 µM; GI50 (CAKI-1 renal): 3.32 µM; TGI (CAKI-1 renal): > 100 µM; GI50 (CCRF-CEM leukemia): > 100 µM; TGI (CCRF-CEM leukemia): > 100 µM; GI50 (HCC-2998 colon): > 100 µM; TGI (HCC-2998 colon): > 100 µM; GI50 (HCT-15 colon): 30.1 µM; TGI (HCT-15 colon): > 100 µM; GI50 (HL-60(TB) leukemia): > 100 µM; TGI (HL-60(TB) leukemia): > 100 µM; GI50 (HOP-92 NSCLC): 1820 nM; TGI (HOP-92 NSCLC): 5.1 µM; GI50 (HS 578T breast): 2680 nM; TGI (HS 578T breast): 7.02 µM; GI50 (HT29 colon): 4.42 µM; TGI (HT29 colon): > 100 µM; GI50 (IGROV1 ovarian): 3.73 µM; TGI (IGROV1 ovarian): > 100 µM; GI50 (KM12 colon): > 100 µM; TGI (KM12 colon): > 100 µM; GI50 (LOX IMVI melanoma): 3.6 µM; TGI (LOX IMVI melanoma): > 100 µM; GI50 (M14 melanoma): 4.92 µM; TGI (M14 melanoma): > 100 µM; GI50 (MALME-3M melanoma): 2510 nM; TGI (MALME-3M melanoma): 5.85 µM; GI50 (MCF7 breast): 7.2 µM; TGI (MCF7 breast): > 100 µM; GI50 (MDA-MB-435): 5.77 µM; TGI (MDA-MB-435): > 100 µM; GI50 (MOLT-4 leukemia): > 100 µM; TGI (MOLT-4 leukemia): > 100 µM; GI50 (NCI-H460 lung): 3.01 µM; TGI (NCI-H460 lung): > 100 µM; GI50 (NCI-H522 lung): 3.37 µM; TGI (NCI-H522 lung): 82 µM; GI50 (NCI/ADR-RES ovarian): 3.9 µM; TGI (NCI/ADR-RES ovarian): > 100 µM; GI50 (OVCAR-3 ovarian): 3.18 µM; TGI (OVCAR-3 ovarian): > 100 µM; GI50 (OVCAR-4 ovarian): 2000 nM; TGI (OVCAR-4 ovarian): 4.9 µM; GI50 (OVCAR-5 ovarian): > 100 µM; TGI (OVCAR-5 ovarian): > 100 µM; GI50 (PC-3 prostate): 2.58 µM; TGI (PC-3 prostate): > 100 µM; GI50 (RPMI-8226 leukemia): 3.74 µM; TGI (RPMI-8226 leukemia): > 100 µM; GI50 (RXF 393 renal): 1760 nM; TGI (RXF 393 renal): 4.26 µM; GI50 (SF-268 CNS): 2590 nM; TGI (SF-268 CNS): 6.83 µM; GI50 (SK-MEL-5 melanoma): 2.91 µM; TGI (SK-MEL-5 melanoma): > 100 µM; GI50 (SN12C renal): > 100 µM; TGI (SN12C renal): > 100 µM; GI50 (SNB-19 CNS): 2640 nM; TGI (SNB-19 CNS): > 100 µM; GI50 (SNB-75 CNS): 1730 nM; TGI (SNB-75 CNS): 3.23 µM; GI50 (SR leukemia): 6.26 µM; TGI (SR leukemia): > 100 µM; GI50 (SW-620 colon): 8.37 µM; TGI (SW-620 colon): > 100 µM; GI50 (T-47D breast): 4.06 µM; TGI (T-47D breast): > 100 µM; GI50 (U251 CNS): 3.05 µM; TGI (U251 CNS): > 100 µM; GI50 (UACC-257 melanoma): 5.77 µM; TGI (UACC-257 melanoma): > 100 µM; GI50 (UACC-62 melanoma): 5.59 µM; TGI (UACC-62 melanoma): > 100 µM
